Patent US5225441A, “Treatment of periodontal disease” (Block Drug Company, Inc., priority 1987, dated 1993)

How the values were obtained:
[1] = target: periodontal cyclooxygenase; assay: Inhibition of cyclooxygenase products (14C arachidonic acid incorporation) in inflamed human gingival tissue homogenate; assay type: biochemical; details: for % Control: 2 hours at 37° C.
Method: Inflamed human gingival tissue was obtained from patients with periodontitis who were undergoing routine periodontal surgery. The tissues were immediately stored in liquid nitrogen prior to use or were used fresh. The assay of cyclooxygenase products was performed as a modification of the assay of El Attar et al., J. Periodon. Res., 21, 169-176 (1986). Pooled tissue was weighed and homogenized at 0°-4° C. with a polytron (Brinkman) homogenizer in a 0.2 M TRIS buffer, pH 8.0, at a final concentration of 20 mg/ml. After centrifugation for 10 minutes at 1200×g, the supernatant was divided into 3 ml aliquots for incubation in the presence or absence of a test compound. The test compounds were tested in triplicate over a log range of 10^-3 to 10^-9 M. The reaction was started by the addition of 0.2 uCi of ^14 C arachidonic acid and carried out for 2 hours at 37° C. The reaction was stopped by the addition of two volumes of ethanol and allowed to remain at room temperature for 30 minutes prior to centrifugation for 10 minutes in order to remove the precipitate. The prostaglandin was then extracted.
Prostanoids were extracted as described by Powell, Methods in Eng., 86, 467 (1982) using a Sep-Pak-C18 cartridge from Walters Associates. The Sep-Pak was prepared by the sequential elusion of 20 milliliters of ethanol and 20 milliliters of water. The sample was then adjusted to 15% ethanol, pH 3.0, with acetic acid and applied to the column. The column was eluted with 20 ml of 15% ethanol, pH 3.0, 20 ml of petroleum ether and then the prostaglandin and Tx (thromboxane) was eluded with 10 ml of methyl formate. Thereafter, the methyl formate was evaporated to dryness with nitrogen and reconstituted in 32% […] (high-pressure liquid chromatography buffer).
These are readily separated and quantified using a 4.6×100 mm RP-18 Spheri-5u column from Brownlee Labs. A Flow-One radioactivity monitor simultaneously measured radioactivity. The elution was monitored at 192 nanometers.
The net incorporation of the ^14 C arachidonate was measured in the absence of the test substance in order to determine the maximal activity of the cyclooxygenase cascade. The percent inhibition for the inhibitors tested was then determined at several concentrations in order to calculate the IC50.

[2] = test system: periodontally supporting bone loss; details: beagle dog model; clinical index of periodontal disease progression; cited from earlier work

IC50 ([1]; calculated from percent inhibition at several concentrations): 15 µM
% Control ([1]; drug concentration 1 × 10^-4 M, 100 µM): 27.5%
% Control ([1]; drug concentration 1 × 10^-5 M, 10 µM): 55.6%
% Control ([1]; drug concentration 10^-6 M, 1 µM): 92.6%
Structure (SMILES): CC(C)Cc1ccc(C(C)C(=O)O)cc1 (centres unmarked) [ibuprofen]
Inhibition of periodontally supporting bone loss [2]: effective
